The term pIC50 denotes the IC50 on a negative log10 scale, so that one unit is a factor of ten.

For 16 compounds, IC50 and Activity results are on record in ChEMBL document CHEMBL3286097, “Dual carbonic anhydrase/matrix metalloproteinase inhibitors incorporating bisphosphonic acid moieties targeting bone tumors” (Bioorg Med Chem Lett, 2014).

Among the targets are Carbonic anhydrase 9 (Homo sapiens, UniProt Q16790); Carbonic anhydrase 2 (Homo sapiens, UniProt P00918); Carbonic anhydrase 12 (Homo sapiens, UniProt O43570); Carbonic anhydrase 14 (Homo sapiens, UniProt Q9ULX7).
A further assay deals with J774. Nature of the assay: Cytotoxicity against mouse J774 cells assessed as reduction in cell viability. Format: functional, cell-based.
Assay [1] addresses T1, Carbonic anhydrase 1 (Homo sapiens, UniProt P00915).
Target sequence in this assay (P00915 whole entry): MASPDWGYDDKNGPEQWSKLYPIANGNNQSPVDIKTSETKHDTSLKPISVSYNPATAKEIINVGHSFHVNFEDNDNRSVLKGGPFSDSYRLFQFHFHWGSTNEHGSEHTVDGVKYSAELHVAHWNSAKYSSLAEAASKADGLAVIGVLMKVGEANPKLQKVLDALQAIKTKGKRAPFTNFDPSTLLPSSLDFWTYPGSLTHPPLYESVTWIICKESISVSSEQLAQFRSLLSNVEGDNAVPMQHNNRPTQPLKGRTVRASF
Description: Inhibition of human recombinant carbonic anhydrase 1 pretreated for 15 mins by stopped flow CO2 hydrase assay
Assay [2] deals with 72 kDa type IV collagenase (Homo sapiens, UniProt P08253).
In assay [3] the target is T1, Carbonic anhydrase 1. Description: Activation of human recombinant carbonic anhydrase 1 pretreated for 15 mins by stopped flow CO2 hydrase assay.
Target sequence in this assay (P00915 2-261 limits assumed): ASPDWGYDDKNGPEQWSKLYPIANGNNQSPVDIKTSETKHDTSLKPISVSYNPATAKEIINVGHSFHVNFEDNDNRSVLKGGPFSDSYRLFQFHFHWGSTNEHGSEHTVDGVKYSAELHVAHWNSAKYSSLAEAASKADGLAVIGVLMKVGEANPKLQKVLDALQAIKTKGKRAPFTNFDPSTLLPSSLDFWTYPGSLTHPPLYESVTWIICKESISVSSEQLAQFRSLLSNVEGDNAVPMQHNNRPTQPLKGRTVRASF

SMILES strings stand for the structures. pIC50: −log10 of the molar value. Active and inactive are the calls of the source. The rule behind the calls is not given here. Where only a bound is given, the exact number is not on record here.

Carbonic anhydrase 12, sequence (O43570 whole entry): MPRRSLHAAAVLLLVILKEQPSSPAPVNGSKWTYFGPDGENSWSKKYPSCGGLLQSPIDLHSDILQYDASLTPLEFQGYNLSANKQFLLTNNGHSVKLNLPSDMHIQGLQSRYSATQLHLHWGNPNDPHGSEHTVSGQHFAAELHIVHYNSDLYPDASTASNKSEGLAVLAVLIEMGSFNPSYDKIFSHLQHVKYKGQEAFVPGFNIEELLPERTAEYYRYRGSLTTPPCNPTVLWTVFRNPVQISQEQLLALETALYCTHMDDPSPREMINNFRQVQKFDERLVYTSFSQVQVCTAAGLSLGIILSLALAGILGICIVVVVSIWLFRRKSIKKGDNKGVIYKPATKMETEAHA
72 kDa type IV collagenase, sequence (P08253 whole entry): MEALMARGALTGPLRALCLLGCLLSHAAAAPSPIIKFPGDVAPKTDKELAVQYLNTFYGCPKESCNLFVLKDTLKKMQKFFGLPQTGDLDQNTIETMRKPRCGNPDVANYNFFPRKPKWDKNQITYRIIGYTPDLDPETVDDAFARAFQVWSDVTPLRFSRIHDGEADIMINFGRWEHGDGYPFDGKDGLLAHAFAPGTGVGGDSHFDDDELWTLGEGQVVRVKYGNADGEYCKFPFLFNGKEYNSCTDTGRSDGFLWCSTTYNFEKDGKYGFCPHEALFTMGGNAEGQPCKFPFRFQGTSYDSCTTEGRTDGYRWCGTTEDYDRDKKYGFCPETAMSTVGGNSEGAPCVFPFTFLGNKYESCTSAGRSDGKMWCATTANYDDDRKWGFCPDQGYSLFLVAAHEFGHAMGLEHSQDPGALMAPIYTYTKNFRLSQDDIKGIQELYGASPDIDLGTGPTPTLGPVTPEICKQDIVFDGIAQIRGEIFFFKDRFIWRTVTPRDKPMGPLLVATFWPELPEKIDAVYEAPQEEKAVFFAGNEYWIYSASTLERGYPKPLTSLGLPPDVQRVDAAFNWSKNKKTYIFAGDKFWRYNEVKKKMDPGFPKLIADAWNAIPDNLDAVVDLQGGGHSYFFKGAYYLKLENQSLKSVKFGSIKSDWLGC
Carbonic anhydrase 14, sequence (Q9ULX7 whole entry): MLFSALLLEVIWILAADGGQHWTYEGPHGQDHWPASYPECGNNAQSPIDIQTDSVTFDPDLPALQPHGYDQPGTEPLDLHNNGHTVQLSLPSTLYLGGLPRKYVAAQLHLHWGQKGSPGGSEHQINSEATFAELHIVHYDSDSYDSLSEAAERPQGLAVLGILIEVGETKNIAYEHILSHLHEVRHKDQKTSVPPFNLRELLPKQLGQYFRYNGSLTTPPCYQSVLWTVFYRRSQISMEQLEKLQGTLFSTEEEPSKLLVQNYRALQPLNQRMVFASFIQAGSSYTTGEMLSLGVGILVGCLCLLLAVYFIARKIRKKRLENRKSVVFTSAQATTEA
Description for Carbonic anhydrase 12: Inhibition of human recombinant carbonic anhydrase 12 pretreated for 15 mins by stopped flow CO2 hydrase assay
Description for Carbonic anhydrase 14: Inhibition of human recombinant carbonic anhydrase 14 pretreated for 15 mins by stopped flow CO2 hydrase assay
Description for Carbonic anhydrase 2: Inhibition of human recombinant carbonic anhydrase 2 pretreated for 15 mins by stopped flow CO2 hydrase assay
Description for Carbonic anhydrase 9: Inhibition of human recombinant carbonic anhydrase 9 pretreated for 15 mins by stopped flow CO2 hydrase assay

`O=P(O)(O)C(NS(=O)(=O)c1ccc(-c2ccccc2)cc1)P(=O)(O)O`: the negative-log IC50 (pIC50) at Carbonic anhydrase 9 is 6.46; with J774 it was 5.31; against Carbonic anhydrase 1 [1], 5.17; on Carbonic anhydrase 2 it was 5.85; against Carbonic anhydrase 12, 6.41; on Carbonic anhydrase 14, 6.14.

On to `O=[N+]([O-])c1ccc(-c2ccc(S(=O)(=O)NC(P(=O)(O)O)P(=O)(O)O)cc2)cc1`, for which the pIC50 at Carbonic anhydrase 9 is 6.22; in the assay with J774, 4.49; against Carbonic anhydrase 1 [1] it was 5.04; at Carbonic anhydrase 2, 7.15; at Carbonic anhydrase 12, 7.19; against Carbonic anhydrase 14 it was 7.09. In assay [2], the pIC50 was 6.72.

Regarding `O=[N+]([O-])c1cccc(S(=O)(=O)NC(P(=O)(O)O)P(=O)(O)O)c1`, the negative-log IC50 (pIC50) was 5.57 on Carbonic anhydrase 9; under 5.00 against Carbonic anhydrase 1 [1]; 5.42 on Carbonic anhydrase 2; 6.10 against Carbonic anhydrase 12; under 5.00 against Carbonic anhydrase 14; 4.80 in assay [2].

`O=P(O)(O)C(NS(=O)(=O)c1ccc(Br)cc1)P(=O)(O)O`: the pIC50 at Carbonic anhydrase 9 was 6.63; at Carbonic anhydrase 1 [1] it was under 5.00; on Carbonic anhydrase 2, under 5.00; against Carbonic anhydrase 12 it was 7.21; on Carbonic anhydrase 14, 6.05; in assay [2] it was 5.32.

`O=P(O)(O)CP(=O)(O)O` [MEDRONIC ACID]: the results for the negative-log IC50 (pIC50) (on Carbonic anhydrase 9; on Carbonic anhydrase 2; in assay [2]) were 3.07, 2.90 and 4.31, respectively. At Carbonic anhydrase 1 [3], the result was Active.

Regarding `COc1ccc(S(=O)(=O)NC(P(=O)(O)O)P(=O)(O)O)cc1`, the negative-log IC50 (pIC50) at Carbonic anhydrase 9 was 7.05; on Carbonic anhydrase 1 [1] it was under 5.00; against Carbonic anhydrase 2, under 5.00; at Carbonic anhydrase 12 it was 6.42; against Carbonic anhydrase 14, 6.29; in assay [2] it was 4.72.

For `O=P(O)(O)C(NS(=O)(=O)c1ccc(-c2ccc(Cl)cc2)cc1)P(=O)(O)O`, the pIC50 is 5.21 on Carbonic anhydrase 9; 5.77 in the assay with J774; 5.76 against Carbonic anhydrase 1 [1]; 5.58 against Carbonic anhydrase 2; 6.32 against Carbonic anhydrase 12; 5.61 against Carbonic anhydrase 14. The pIC50 in assay [2] is 7.43.

On to `O=P(O)(O)C(P(=O)(O)O)S(=O)(=O)c1ccc(Br)cc1`, for which the negative logarithm of the IC50 (pIC50) against Carbonic anhydrase 9 was under 5.00; on Carbonic anhydrase 1 [1], under 5.00; against Carbonic anhydrase 2, under 5.00; at Carbonic anhydrase 12 it was 6.65; at Carbonic anhydrase 14, 5.22; in assay [2] it was 4.28.

For `O=P(O)(O)C(NS(=O)(=O)c1ccc(Cl)cc1)P(=O)(O)O`, the pIC50 on Carbonic anhydrase 9 is 7.02; against Carbonic anhydrase 1 [1], under 5.00; on Carbonic anhydrase 2, 5.21; against Carbonic anhydrase 12, 6.33; against Carbonic anhydrase 14, 5.18; in assay [2], 5.02.

On to `O=P(O)(O)C(O)(Cn1ccnc1)P(=O)(O)O` [ZOLEDRONIC ACID], for which the negative-log IC50 (pIC50) in the assay on J774 was 5.11; on Carbonic anhydrase 1 [1], under 5.00.

As for `COc1ccc(-c2ccc(S(=O)(=O)NC(P(=O)(O)O)P(=O)(O)O)cc2)cc1`, the pIC50 against Carbonic anhydrase 9 is 7.08; in the assay with J774, 4.92; against Carbonic anhydrase 1 [1] it was 7.39; against Carbonic anhydrase 2, 7.15; against Carbonic anhydrase 12 it was 7.12; against Carbonic anhydrase 14, 7.15. For the same compound, the negative logarithm of the IC50 (pIC50) in assay [2] was 6.96.

As for `O=P(O)(O)C(NS(=O)(=O)c1ccccc1)P(=O)(O)O`, the pIC50 on Carbonic anhydrase 9 is 6.40; against Carbonic anhydrase 1 [1], under 5.00; against Carbonic anhydrase 2, under 4.00; against Carbonic anhydrase 12 it was 6.07; at Carbonic anhydrase 14 it was 5.48; in assay [2], 4.80.

For the compound `O=P(O)(O)C(NS(=O)(=O)c1ccc(-c2cccs2)cc1)P(=O)(O)O`, the negative logarithm of the IC50 (pIC50) on Carbonic anhydrase 9 was 6.22; in the assay with J774, 4.92; against Carbonic anhydrase 1 [1], 5.21; at Carbonic anhydrase 2 it was 6.30; on Carbonic anhydrase 12, 7.06; against Carbonic anhydrase 14 it was 6.23. The pIC50 in assay [2] is 6.64.

For `O=C(NC(P(=O)(O)O)P(=O)(O)O)c1ccc(Br)cc1`, the pIC50 at Carbonic anhydrase 9 is under 5.00; against Carbonic anhydrase 1 [1], under 5.00; on Carbonic anhydrase 2, under 5.00; against Carbonic anhydrase 12, 6.56; against Carbonic anhydrase 14, 5.22; in assay [2], 4.52.

Consider `Cc1ccc(S(=O)(=O)NC(P(=O)(O)O)P(=O)(O)O)cc1`, for which the pIC50 on Carbonic anhydrase 9 is 6.70; against Carbonic anhydrase 1 [1], under 5.00; at Carbonic anhydrase 2, under 4.00; against Carbonic anhydrase 12, 6.34; at Carbonic anhydrase 14, 6.27; in assay [2] it was 4.74.

Turning to `O=[N+]([O-])c1ccc(S(=O)(=O)NC(P(=O)(O)O)P(=O)(O)O)cc1`, the negative logarithm of the IC50 (pIC50) was 7.11 at Carbonic anhydrase 9; under 5.00 at Carbonic anhydrase 1 [1]; 5.74 on Carbonic anhydrase 2; 7.04 against Carbonic anhydrase 12; 7.04 against Carbonic anhydrase 14; 5.31 in assay [2].
